Measurements as given in paper PMC10633902, “Investigating the antimicrobial activity, cytotoxicity, and action mechanism of acylated and amidated derivatives of AurH1 antifungal peptide” (BMC Microbiology, 2023).
Values after ≈ are worked out from the molar mass of the structure shown. Read-outs that look alike come from different tables or passages of the source. No end group written: not given here.

Experiments:
[1] = test system: Aspergillus flavus (ATCC 24,109); test: microbe, parasite or virus in culture; assay type: cell-based
Method: (§1) The human skin fibroblast (Hu02 cell) and human breast cancer cells (MDA-MB-231 and SKBR-3 cell lines) were purchased from the National Cell Bank of Iran, Pasture Institute of Ira) for cytotoxicity test. Antimicrobial effects of the Ac-AurH1, AurH1-NH2, and AurH1 against the selected bacteria and fungi were conducted using a standard serial dilution method in a 96-well microplate. For this purpose, the desired fungal and bacterial strains were grown overnight at 37 °C (Some of the fungi were incubated at 25 °C) in related media (SDA for fungi and MHA for bacteria). […] Next, serially diluted synthetic peptides in a volume of 100 μL were added to the microtitre plates, followed by 100 μL of bacteria and fungi to give a final inoculum of 5 × 10^5 colony-forming units (CFU)/ml (a 0.5 McFarland standard inoculum). […] In this test, penicillin and streptomycin antibiotics for bacteria and fluconazole, nystatin, and amphotericin B for fungal strains were used as antibiotic control. […] All tests were repeated three times independently.

[2] = test system: Aspergillus niger (ATCC 9142); test: microbe, parasite or virus in culture; assay type: cell-based
Method: as §1

[3] = test system: Candida albicans (ATCC 10,231); test: microbe, parasite or virus in culture; assay type: cell-based
Method: as §1

[4] = test system: Candida glabrata (ATCC 90,030); test: microbe, parasite or virus in culture; assay type: cell-based
Method: as §1

[5] = test system: Candida krusei (ATCC 28,870); test: microbe, parasite or virus in culture; assay type: cell-based
Method: as §1

[6] = test system: C. albicans; test: Killing kinetic assay (time of killing); assay type: cell-based, Candida albicans; details: 1X MIC concentration
[7] = test system: Escherichia coli (ATCC 25,922); test: microbe, parasite or virus in culture; assay type: cell-based; details: ATCC 25, 24 h
Method: as §1

[8] = test system: Staphylococcus aureus (ATCC 25,923); test: microbe, parasite or virus in culture; assay type: cell-based; details: ATCC 25, 24 h
Method: as §1

[9] = test system: Human skin fibroblast (Hu02 cells); assay type: cell-based
Method: Toxicity of peptides on Human skin fibroblast (Hu02 cells) and two human breast cancer cell lines (MDA-MB-231 and SKBR3 cell lines) measured by an MTT assay. At first, cell lines with a density of 1 × 10^5 cells were cultured in the wells of 96-well plates for 24 h under standard conditions (37 °C temperature, 5% CO2 atmosphere with 95% relative humidity). After that, the old medium was replaced with fresh medium (with 10% FBS) containing different peptide concentrations, and the cells were incubated for 24 h. A medium without peptide was used as a negative control. After 24 h of incubation and washing the wells with PBS, the medium (containing 10% FBS) was replaced with fresh medium containing 10% MTT solution (freshly prepared 5 mg/ml MTT in PBS), and the plate was incubated for four h in 5% CO2, at 37 °C. Next, the medium was removed from the wells, and 100 µL DMSO was added. Afterward, the plate was shaken to dissolve Formazan crystals. Finally, by a microplate reader (STAT FAX 2100, BioTek, Winooski, USA), the absorbance values were measured at a wavelength of 595 nm. The percentage of toxicity was calculated as follows: […]

[10] = test system: human red blood cells; assay type: cell-based; details: 1 h
Method: A hemolytic assay was performed to investigate the effects of peptides on human red blood cells. First, 5 ml of fresh human blood was taken from a volunteer. After that, 20% (v/v) suspension of human erythrocytes was prepared and diluted in PBS (1:20). Next, 100 µL of this blood suspension was added in triplicate to 100 µL of a 2-fold serial dilution series of the peptide in a 96‐well plate. 1% Triton-X 100 was used as a positive control to lyse 100% of RBCs, and sterile 0.9% NaCl solution was used as a negative control. Then the plates were incubated at 37 °C for 1 h and centrifuged at 3500 rpm for 10 min. Next, 100 µL of the supernatant was transferred to a new 96-well plate to measure the absorbance at 414 nm using a microplate reader (STAT FAX 2100, BioTek, Winooski, USA). Finally, the percentage of hemolysis was calculated as follows: […]

[11] = A. flavus, mean of 3 independent tests
[12] = A. niger, mean of 3 independent tests
[13] = C. albicans, mean of 3 independent tests
[14] = C. glabrata, mean of 3 independent tests
[15] = C. krusei, mean of 3 independent tests

## C[C@@H]1[C@H](O)[C@@H](C)/C=C/C=C/CC/C=C/C=C/C=C/C=C/C(O[C@H]2O[C@H](C)[C@@H](O)[C@H](N)[C@@H]2O)CC2O[C@](O)(CC(O)C(O)CCC(O)CC(O)CC(O)CC(=O)O[C@H]1C)CC(O)C2C(=O)O (some centres unmarked) [Nys, Nystatin, reference compound]
[1]; [11]
  MBC (MFC): 62.50 mg/L (≈ 67.5 µM)
  MIC: 7.81 mg/L (≈ 8.43 µM)
[2]; [12]
  MBC (MFC): 125 mg/L (≈ 135 µM)
  MIC: 31.25 mg/L (≈ 33.7 µM)
[3]; [13]
  MBC (MFC): 3.90 mg/L (≈ 4.21 µM)
  MIC: 1.95 mg/L (≈ 2.11 µM)
[4]; [14]
  MBC (MFC): 3.9 mg/L (≈ 4.21 µM)
  MIC: 3.9 mg/L (≈ 4.21 µM)
[5]; [15]
  MBC (MFC): 3.90 mg/L (≈ 4.21 µM)
  MIC: 1.95 mg/L (≈ 2.11 µM)
[6]
  time to kill all C. albicans (maximum fungicidal effect): 8 h

## OC(Cn1cncn1)(Cn1cncn1)c1ccc(F)cc1F [Flu, Fluconazole, reference compound]
[1]; Aspergillus flavus, ATCC24, A. flavus, mean of 3 independent tests, read-out: MIC
  MIC: > 1000 mg/L
[2]; Aspergillus niger, ATCC9142, A. niger, mean of 3 independent tests
  MBC: > 1000 mg/L
[2]; Aspergillus niger, ATCC9142, A. niger, mean of 3 independent tests, read-out: MIC
  MIC: 500 mg/L (≈ 1630 µM)
[3]; Candida albicans, ATCC10, C. albicans, mean of 3 independent tests
  MBC: 500 mg/L (≈ 1630 µM)
[3]; Candida albicans, ATCC10, C. albicans, mean of 3 independent tests, read-out: MIC
  MIC: 62.5 mg/L (≈ 204 µM)
[4]; Nakaseomyces glabratus, ATCC90, C. glabrata, mean of 3 independent tests
  MBC: 500 mg/L (≈ 1630 µM)
[4]; Nakaseomyces glabratus, ATCC90, C. glabrata, mean of 3 independent tests, read-out: MIC
  MIC: 125 mg/L (≈ 408 µM)
[5]; Pichia kudriavzevii, ATCC28, C. krusei, mean of 3 independent tests
  MBC: 250 mg/L (≈ 816 µM)
[5]; Pichia kudriavzevii, ATCC28, C. krusei, mean of 3 independent tests, read-out: MIC
  MIC: 62.5 mg/L (≈ 204 µM)
[6]
  time to kill all C. albicans (maximum fungicidal effect): could not eliminate C. albicans after 24 h

## Ac-WFKIIKK [Ac-AurH1, Ac-WFKIIKK]
[1]; ATCC 24, 24 h
  MIC: > 1000 mg/L
[2]; ATCC 9142, 24 h
  MIC: > 1000 mg/L
[3]; ATCC 10, 24 h
  MBC (MFC): > 1000 mg/L
  MIC: 250 mg/L
[4]; ATCC 90, 24 h
  MIC: > 1000 mg/L
[5]; ATCC 28, 24 h
  MBC (MFC): > 1000 mg/L
  MIC: 500 mg/L
[7]
  MIC: > 1000 mg/L
[8]
  MIC: > 1000 mg/L
[9]
  toxicity: more than 10%
[10]
  HC50 (concentration that lyses 50% of red blood cells): 10,127 µg/ml
